We go through 28 compounds from patent publication US10202378B2, “Therapeutic compounds and uses thereof” (GENENTECH, INC., priority 2015, dated 2019).

One test has as its target TAF1-BD2 (Homo sapiens, UniProt P21675). In words: TAF1-BD2 TR-FRET Binding Assay. Particulars: read-out: TAF1-BD2 HTRF IC50. On the technique in general: TR-FRET usually uses a lanthanide donor and a delayed reading to cut background.
A further test addresses TAF1-BD1 (Homo sapiens, UniProt P21675). The test is described as follows: TAF1-BD1 TR-FRET Binding Assay. As to conditions: read-out: TAF1-BD1 HTRF IC50.

Consider `CCOC(=O)c1c(C)[nH]c2c(=O)n(C)cc(C#CC(O)(c3ccccc3)C(F)(F)F)c12` (centres unmarked) [Example 73, ethyl 2,6-dimethyl-7-oxo-4-(4,4,4-trifluoro-3-hydroxy-3-phenyl-but-1-ynyl)-1H-pyrrolo[2,3-c]pyridine-3-carboxylate], for which the IC50 worked out at 69.5 nM at TAF1-BD2 and 287 nM at TAF1-BD1.
The like results for `CCOC(=O)c1c(C)[nH]c2c(=O)n(C)cc(C#CC3(O)CCN(C)C3=O)c12` (centres unmarked) [Example 74, ethyl 4-[2-(3-hydroxy-1-methyl-2-oxo-pyrrolidin-3-yl)ethynyl]-2,6-dimethyl-7-oxo-1H-pyrrolo[2,3-c]pyridine-3-carboxylate] were, in that order, 209 nM and 2040 nM.
On the same counts, the results for `CCOC(=O)c1c(C)[nH]c2c(=O)n(C)cc(C#CC(O)(CC)c3ccccc3)c12` (centres unmarked) [Example 75, ethyl 4-(3-hydroxy-3-phenyl-pent-1-ynyl)-2,6-dimethyl-7-oxo-1H-pyrrolo[2,3-c]pyridine-3-carboxylate] are 76.5 nM and 427 nM.
The like results for `CCOC(=O)c1c(C)[nH]c2c(=O)n(C)cc(C#CC(C)(C)C)c12` [Example 76, ethyl 4-(3,3-dimethylbut-1-ynyl)-2,6-dimethyl-7-oxo-1H-pyrrolo[2,3-c]pyridine-3-carboxylate] were, in that order, 777 nM and 561 nM.
For the compound `CCOC(=O)c1c(C)[nH]c2c(=O)n(C)cc(C#CC(C)(C)O)c12` [Example 78, ethyl 4-(3-hydroxy-3-methyl-but-1-ynyl)-2,6-dimethyl-7-oxo-1H-pyrrolo[2,3-c]pyridine-3-carboxylate], the IC50 at TAF1-BD2 is 38.5 nM; at TAF1-BD1, 616 nM.
Consider `CCOC(=O)c1c(C)[nH]c2c(=O)n(C)cc(C#CC3CCCCC3)c12` [Example 79, ethyl 4-(2-cyclohexylethynyl)-2,6-dimethyl-7-oxo-1H-pyrrolo[2,3-c]pyridine-3-carboxylate], for which the results for the IC50 on TAF1-BD2 and on TAF1-BD1 were 584 nM and 1330 nM, respectively.
On the same counts, the results for `CCOC(=O)c1c(C)[nH]c2c(=O)n(C)cc(C#CC3(O)CCCCC3)c12` [Example 81, ethyl 4-[2-(1-hydroxycyclohexyl)ethynyl]-2,6-dimethyl-7-oxo-1H-pyrrolo[2,3-c]pyridine-3-carboxylate] are 63.2 nM and 257 nM.
The like results for `CCOC(=O)c1c(C)[nH]c2c(=O)n(C)cc(C#CCCO)c12` [Example 82, ethyl 4-(4-hydroxybut-1-ynyl)-2,6-dimethyl-7-oxo-1H-pyrrolo[2,3-c]pyridine-3-carboxylate] were, in that order, 337 nM and 1750 nM.
In the case of `CCOC(=O)c1c(C)[nH]c2c(=O)n(C)cc(C#CC3(O)C(=O)N(C)c4ccccc43)c12` (centres unmarked) [Example 86, ethyl 4-[2-(3-hydroxy-1-methyl-2-oxo-indolin-3-yl)ethynyl]-2,6-dimethyl-7-oxo-1H-pyrrolo[2,3-c]pyridine-3-carboxylate], the figures for the half-maximal inhibitory concentration (IC50) at TAF1-BD2 and at TAF1-BD1 were 98.1 nM and 581 nM, respectively.
As for `CCOC(=O)c1c(C)[nH]c2c(=O)n(C)cc(C#CC(C)(O)C3CCOCC3)c12` (centres unmarked) [Example 87, ethyl 4-(3-hydroxy-3-tetrahydropyran-4-yl-but-1-ynyl)-2,6-dimethyl-7-oxo-1H-pyrrolo[2,3-c]pyridine-3-carboxylate], the IC50 at TAF1-BD2 was determined as 181 nM; on TAF1-BD1, 770 nM.
On the same counts, the results for `CCOC(=O)c1c(C)[nH]c2c(=O)n(C)cc(C#CC3(O)CCOCC3)c12` [Example 88, ethyl 4-[2-(4-hydroxytetrahydropyran-4-yl)ethynyl]-2,6-dimethyl-7-oxo-1H-pyrrolo[2,3-c]pyridine-3-carboxylate] are 98.6 nM and 1110 nM.
On to `CCOC(=O)c1c(C)[nH]c2c(=O)n(C)cc(C#CC(O)(c3ccccc3)C(F)F)c12` (centres unmarked) [Example 89, ethyl 4-(4,4-difluoro-3-hydroxy-3-phenyl-but-1-ynyl)-2,6-dimethyl-7-oxo-1H-pyrrolo[2,3-c]pyridine-3-carboxylate], for which the IC50 came to 32.9 nM at TAF1-BD2 and 278 nM on TAF1-BD1.
On the same counts, the results for `CCOC(=O)c1c(C)[nH]c2c(=O)n(C)cc(C#CC(O)(c3cccc(Oc4ccccc4)c3)C(F)(F)F)c12` (centres unmarked) [Example 90, ethyl 2,6-dimethyl-7-oxo-4-[4,4,4-trifluoro-3-hydroxy-3-(3-phenoxyphenyl)but-1-ynyl]-1H-pyrrolo[2,3-c]pyridine-3-carboxylate] are 699 nM and 2280 nM.
On the same counts, the results for `CCOC(=O)c1c(C)[nH]c2c(=O)n(C)cc(C#CC(O)(c3cccc(-c4cccnc4)c3)C(F)(F)F)c12` (centres unmarked) [Example 100, ethyl 2,6-dimethyl-7-oxo-4-[4,4,4-trifluoro-3-hydroxy-3-[3-(3-pyridyl)phenyl]but-1-ynyl]-1H-pyrrolo[2,3-c]pyridine-3-carboxylate] are 27.3 nM and 189 nM.
The like results for `CCOC(=O)c1c(C)[nH]c2c(=O)n(C)cc(C#CC(O)(c3cccc(-c4ccccc4OC)c3)C(F)(F)F)c12` (centres unmarked) [Example 101, ethyl 2,6-dimethyl-7-oxo-4-[4,4,4-trifluoro-3-hydroxy-3-[3-(2-methoxyphenyl)phenyl]but-1-ynyl]-1H-pyrrolo[2,3-c]pyridine-3-carboxylate] were, in that order, 608 nM and 4330 nM.
For the compound `CCOC(=O)c1c(C)[nH]c2c(=O)n(C)cc(C#CC(O)(c3cccc(-c4ccccc4C)c3)C(F)(F)F)c12` (centres unmarked) [Example 102, ethyl 2,6-dimethyl-7-oxo-4-[4,4,4-trifluoro-3-hydroxy-3-[3-(o-tolyl)phenyl]but-1-ynyl]-1H-pyrrolo[2,3-c]pyridine-3-carboxylate], the half-maximal inhibitory concentration (IC50) on TAF1-BD2 amounted to 912 nM; at TAF1-BD1, 7510 nM.
On the same counts, the results for `Cc1[nH]c2c(=O)n(C)cc(C#CC(C)(C)O)c2c1C(=O)OCc1ccccc1` [Example 103, Benzyl 4-(3-hydroxy-3-methyl-but-1-ynyl)-2,6-dimethyl-7-oxo-1H-pyrrolo[2,3-c]pyridine-3-carboxylate] are 34.5 nM and 151 nM.
On the same counts, the results for `Cc1[nH]c2c(=O)n(C)cc(C#CC(O)(c3ccccc3)C(F)(F)F)c2c1C(=O)OC(C)c1ccccc1` (centres unmarked) [Example 104, 1-phenylethyl 2,6-dimethyl-7-oxo-4-(4,4,4-trifluoro-3-hydroxy-3-phenyl-but-1-ynyl)-1H-pyrrolo[2,3-c]pyridine-3-carboxylate] are 1200 nM and 3210 nM.
The like results for `Cc1[nH]c2c(=O)n(C)cc(C#CC(C)(O)C3CC3)c2c1C(=O)OCc1cccc2cccnc12` (centres unmarked) [Example 105, 8-quinolylmethyl 4-(3-cyclopropyl-3-hydroxy-but-1-ynyl)-2,6-dimethyl-7-oxo-1H-pyrrolo[2,3-c]pyridine-3-carboxylate] were, in that order, 34.6 nM and 93.9 nM.
Consider `Cc1[nH]c2c(=O)n(C)cc(C#CC(O)(c3ccccc3)C(F)(F)F)c2c1C(=O)OCc1ccccc1C#N` (centres unmarked) [Example 107, (2-cyanophenyl)methyl 2,6-dimethyl-7-oxo-4-(4,4,4-trifluoro-3-hydroxy-3-phenyl-but-1-ynyl)-1H-pyrrolo[2,3-c]pyridine-3-carboxylate], for which the IC50 on TAF1-BD2 worked out at 344 nM; on TAF1-BD1, 1630 nM.
The like results for `Cc1ccccc1COC(=O)c1c(C)[nH]c2c(=O)n(C)cc(C#CC(O)(c3ccccc3)C(F)(F)F)c12` (centres unmarked) [Example 108, o-tolylmethyl 2,6-dimethyl-7-oxo-4-(4,4,4-trifluoro-3-hydroxy-3-phenyl-but-1-ynyl)-1H-pyrrolo[2,3-c]pyridine-3-carboxylate] were, in that order, 1260 nM and 3350 nM.
The like results for `Cc1[nH]c2c(=O)n(C)cc(C#CC(C)(O)C3CC3)c2c1C(=O)OCc1nccs1` (centres unmarked) [Example 109, thiazol-2-ylmethyl 4-(3-cyclopropyl-3-hydroxy-but-1-ynyl)-2,6-dimethyl-7-oxo-1H-pyrrolo[2,3-c]pyridine-3-carboxylate] were, in that order, 67.9 nM and 222 nM.
As for `Cc1[nH]c2c(=O)n(C)cc(C#CC(C)(C)O)c2c1C(=O)OCc1ccccc1C#N` [Example 110, (2-cyanophenyl)methyl 4-(3-hydroxy-3-methyl-but-1-ynyl)-2,6-dimethyl-7-oxo-1H-pyrrolo[2,3-c]pyridine-3-carboxylate], the IC50 at TAF1-BD2 amounted to 29.4 nM; on TAF1-BD1 it was 116 nM.
`Cc1[nH]c2c(=O)n(C)cc(C#CC(C)(C)O)c2c1C(=O)OCc1ccccc1CO` [Example 111, [2-(hydroxymethyl)phenyl]methyl 4-(3-hydroxy-3-methyl-but-1-ynyl)-2,6-dimethyl-7-oxo-1H-pyrrolo[2,3-c]pyridine-3-carboxylate]: the figures for the IC50 at TAF1-BD2 and at TAF1-BD1 were 37.9 nM and 259 nM, respectively.
On to `Cc1[nH]c2c(=O)n(C)cc(C#CC(C)(C)O)c2c1C(=O)OCc1ccncc1` [Example 112, 4-pyridylmethyl 4-(3-hydroxy-3-methyl-but-1-ynyl)-2,6-dimethyl-7-oxo-1H-pyrrolo[2,3-c]pyridine-3-carboxylate], for which the IC50 on TAF1-BD2 is 610 nM; at TAF1-BD1, 4620 nM.
The like results for `COc1ccccc1COC(=O)c1c(C)[nH]c2c(=O)n(C)cc(C#CC(C)(C)O)c12` [Example 113, (2-methoxyphenyl)methyl-4-(3-hydroxy-3-methyl-but-1-ynyl)-2,6-dimethyl-7-oxo-1H-pyrrolo[2,3-c]pyridine-3-carboxylate] were, in that order, 24 nM and 123 nM.
The like results for `Cc1[nH]c2c(=O)n(C)cc(C#CC(C)(C)O)c2c1C(=O)OCc1ccccn1` [Example 115, 2-pyridylmethyl 4-(3-hydroxy-3-methyl-but-1-ynyl)-2,6-dimethyl-7-oxo-1H-pyrrolo[2,3-c]pyridine-3-carboxylate] were, in that order, 34.1 nM and 282 nM.
As to `Cc1[nH]c2c(=O)n(C)cc(C#CC(C)(C)O)c2c1C(=O)OCc1ccccc1C(F)(F)F` [Example 116, [2-(trifluoromethyl)phenyl]methyl 4-(3-hydroxy-3-methyl-but-1-ynyl)-2,6-dimethyl-7-oxo-1H-pyrrolo[2,3-c]pyridine-3-carboxylate], the values for the IC50 on TAF1-BD2 and on TAF1-BD1 were 27.7 nM and 105 nM, respectively.

Broadly, the IC50 is the midpoint of a concentration-inhibition curve.
